Our source for the IC50 values is BindingDB's records for patent US11649233 (Nanjing Transthera Biosciences, 2023).

For the experiment, the target named is T1, Amine oxidase [copper-containing] 3 (Homo sapiens, UniProt Q16853).
T1 sequence (Q16853 whole entry): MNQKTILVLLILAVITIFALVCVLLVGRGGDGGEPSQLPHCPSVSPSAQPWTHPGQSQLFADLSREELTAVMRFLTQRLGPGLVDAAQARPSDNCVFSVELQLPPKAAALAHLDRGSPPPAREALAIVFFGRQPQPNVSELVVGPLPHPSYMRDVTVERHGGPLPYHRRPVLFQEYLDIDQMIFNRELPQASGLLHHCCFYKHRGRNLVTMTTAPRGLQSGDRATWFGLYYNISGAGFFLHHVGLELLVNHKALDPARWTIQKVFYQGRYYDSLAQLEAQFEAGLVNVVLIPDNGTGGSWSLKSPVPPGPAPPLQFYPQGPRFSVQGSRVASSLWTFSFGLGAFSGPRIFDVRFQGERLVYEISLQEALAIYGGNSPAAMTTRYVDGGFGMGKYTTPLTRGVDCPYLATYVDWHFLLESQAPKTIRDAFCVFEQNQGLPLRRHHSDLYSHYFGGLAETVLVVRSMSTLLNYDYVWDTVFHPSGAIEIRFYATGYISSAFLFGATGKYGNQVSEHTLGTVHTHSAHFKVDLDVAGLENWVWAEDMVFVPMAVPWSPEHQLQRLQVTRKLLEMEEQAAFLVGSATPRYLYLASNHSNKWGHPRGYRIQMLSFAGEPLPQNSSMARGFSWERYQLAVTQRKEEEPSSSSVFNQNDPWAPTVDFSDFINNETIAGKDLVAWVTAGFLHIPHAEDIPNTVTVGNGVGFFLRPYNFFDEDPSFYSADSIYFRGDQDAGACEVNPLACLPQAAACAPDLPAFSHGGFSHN
The experiment in a line: Inhibition Activity of the Compound on rhVAP-1 and MAO-A/B. As to the method: Test substances: the compounds of the present invention shown in Table 1 and prepared according to the methods of the examples 1. Inhibition Activity of the Compounds on the rhVAP-1 Enzyme (1) Instrument, consumable and reagent Multifunctional microplate reader (MD, FlexStation 3), black bottom-impermeable 96-well plate (Corning), rhVAP-1 (PeproTech) (2) Preparation of Compound Concentration Gradient Solutions An appropriate amount of the test compound was dissolved in DMSO to 10 mM and stored. Before the experiment, an appropriate amount of 10 mM test compound mother liquor was diluted to 10 μM solution with DMSO. Then 3-fold gradient dilution with DMSO was performed, and 10 concentration gradients were formed.(3) Preparation of Enzyme Solutions. An appropriate amount of protein diluent was added to the rhVAP-1 powder to obtain 1 mg/mL of the mother liquor for storage. […] Then 50 μL of 2×substrate mixed solution was added to each well, and immediately the detection was performed with the microplate reader in a condition of an exciting light at 565 nm, an emitting light at 590 nm, the fluorescence intensity for detecting each well of 5 minutes/run, and a total detection time of 25 minutes.

What is called IC50 is the concentration needed to halve the response being measured. For the compound `CC(C)N1CCc2cc(OC/C(=C/F)CN)ccc2C1=O` [US11649233, Compound 4], 59 nM corresponded to half-maximal inhibition (IC50).
